According to PMC9440615 (Biochemical pharmacology, 2020):
Counter-ions that a name gives are not always drawn. Like-named read-outs stand apart in the source and are kept apart here.

Legend:
CYP3A4 mRNA expression [1] = tested on: CYP3A4 mRNA expression
hPXR [2] = molecular target: T1, hPXR (Homo sapiens, UniProt O75469)
T1 sequence (O75469 1-434): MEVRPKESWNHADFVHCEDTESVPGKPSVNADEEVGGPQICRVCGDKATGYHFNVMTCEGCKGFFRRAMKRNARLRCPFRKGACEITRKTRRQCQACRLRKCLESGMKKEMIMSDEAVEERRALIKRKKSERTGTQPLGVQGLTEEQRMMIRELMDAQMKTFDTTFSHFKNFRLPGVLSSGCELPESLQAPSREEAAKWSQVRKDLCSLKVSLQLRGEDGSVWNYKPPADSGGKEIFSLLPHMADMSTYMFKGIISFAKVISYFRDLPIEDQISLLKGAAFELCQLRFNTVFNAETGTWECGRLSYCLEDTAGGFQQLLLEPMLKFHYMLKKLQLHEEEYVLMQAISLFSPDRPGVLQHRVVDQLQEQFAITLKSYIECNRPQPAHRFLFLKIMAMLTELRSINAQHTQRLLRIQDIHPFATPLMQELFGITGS

hPXR [3] = molecular target: T1, hPXR; test: cell-based
CYP3A4 mRNA expression [4] = test: CYP3A4 mRNA induction in HepaRG cells; details: 24 h treatment, Fig. 2A; for CYP3A4 mRNA induction (result in words): compared with vehicle or RIF 10 μM
CYP2B6 mRNA expression = test: CYP2B6 mRNA induction in HepaRG-PXR-KO cells versus HepaRG cells; format: cell-based, human; details: HepaRG-PXR-KO vs HepaRG, 24 h, Fig. 5B
CYP3A4 mRNA expression [5] = test: CYP3A4 mRNA induction in HepaRG-PXR-KO cells versus HepaRG cells; format: cell-based, human; details: HepaRG-PXR-KO vs HepaRG, 24 h, Fig. 5A
[6] = PXR Primary EC50, qHTS primary screen, hPXR-Luc HepG2, 24 h
[7] = qHTS primary screen, hPXR-Luc HepG2, 24 h, relative to positive control RIF

EC50 (hPXR [3]) [µM] | EC50 (hPXR [3]; [6]) [µM] | PXR Primary Efficacy (hPXR [2]; [7]) [%] | SMILES | PXR Follow-up Efficacy (hPXR [2]) | PXR Primary Efficacy (hPXR [2]) | other results
– | – | – | CC(C)C[C@H](NC(=O)[C@H](Cc1ccccc1)NC(=O)c1cnccn1)B(O)O [Bortezomib] | 0.02 ± 0.004 [83.8 ± 12.8] % | 0.008 ± 0.0005 [97.7 ± 17.9] % | –
3.2 ± 0.4 | 2.6 ± 1.3 | 175 ± 74.6 | CCN1C(=O)c2ccccc2C1Nc1ccc(OCCN2CCCCC2)cc1 (stereo not drawn) [Etomidoline] | – | – | CYP3A4 mRNA induction (result in words) (CYP3A4 mRNA expression [4]): greater extent than the positive control
– | – | – | COc1cccc(N(C)C(=S)Oc2ccc3c(c2)CCCC3)n1 [Liranaftate] | 4.5 ± 0.7 [144 ± 16.0] % | 5.5 ± 2.6 [148 ± 42.6] % | CYP3A4 mRNA induction (result in words) (CYP3A4 mRNA expression [1]): greater extent than the positive control
– | – | – | COC(=O)C1=C(C)NC(C)=C(C(=O)OC2CCCN(Cc3ccccc3)C2)C1c1cccc([N+](=O)[O-])c1 (racemic) [rac Benidipine hydrochloride] | 4.6 ± 2.3 [105 ± 14.7] % | 5.6 ± 5.4 [141 ± 33.3] % | –
8.7 ± 1.5 | 8.3 ± 2.3 | 201 ± 37.5 | Cc1cccc(N(C)C(=S)Oc2ccc3c(c2)CCC3)c1 [Tolindate] | – | – | –
– | – | – | CCOC(=O)C1=C(C)NC(C)=C(C(=O)OCC)C1c1ccccc1/C=C/C(=O)OC(C)(C)C [Lacidipine] | 10.4 ± 4.4 [115 ± 15.0] % | 5.6 ± 5.5 [155 ± 70.5] % | CYP3A4 mRNA induction (result in words) (CYP3A4 mRNA expression [4]): greater extent than the positive control
– | – | – | CCCN(CCC)c1c([N+](=O)[O-])cc(C(F)(F)F)c(N)c1[N+](=O)[O-] [Prodiamine] | 8.5 ± 0.9 [108 ± 6.61] % | 4.7 ± 0.8 [168 ± 31.0] % | EC50 (hPXR [3]; PXR Primary EC50): 4.7 µM; EC50 (hPXR [3]; […]): 8.5 µM
– | – | – | Clc1ccc(-c2nc3sccn3c2C=NOCc2ccc(Cl)c(Cl)c2)cc1 [CITCO, 6-(4-Chlorophenyl)imidazo[2,1–b][1, 3]thiazole-5-carbaldehyde O-(3,4-dichlorobenzyl)oxime] | – | – | Change of CYP2B6 mRNA expression in PXR-KO cells (CYP2B6 mRNA expression): significantly decreased; Change of CYP3A4 mRNA induction in PXR-KO cells (CYP3A4 mRNA expression [5]): lack a significant decrease
1.6 ± 0.3 | 3.2 ± 1.7 | 188 ± 41.7 | O[C@@H](COc1cccc2ncccc12)CN1CCN([C@@H]2c3ccccc3[C@@H]3[C@H](c4ccccc42)C3(F)F)CC1 [Zosuquidar trihydrochloride] | – | – | –
10.8 ± 1.2 | 8.8 ± 3.3 | 222 ± 59.5 | CCOc1cc(N)c(Cl)cc1C(=O)NCC1CN(Cc2ccc(F)cc2)CCO1 (stereo not drawn) [Mosapride citrate] | – | – | –
– | – | – | COC(=O)c1c(C(F)F)nc(C(F)(F)F)c(C2=NCCS2)c1CC(C)C [Thiazopyr] | 4.6 ± 0.3 [102 ± 8.66] % | 1.2 ± 1.0 [108 ± 37.9] % | CYP3A4 mRNA induction (result in words) (CYP3A4 mRNA expression [1]): greater extent than the positive control; EC50 (hPXR [3]; PXR Primary EC50): 1.2 µM; EC50 (hPXR [3]; […]): 4.6 µM
– | – | – | O=C(CCCCCCC(=O)Nc1ccccc1)NO [Vorinostat (SAHA), Vorinostat] | – | 7.8 ± 3.8 [182 ± 46.9] % | –
– | – | – | Cc1nc(Nc2ncc(C(=O)Nc3c(C)cccc3Cl)s2)cc(N2CCN(CCO)CC2)n1 [Dasatinib] | 0.6 ± 0.07 [127 ± 12.0] % | 0.3 ± 0.5 [84.6 ± 22.2] % | –
– | – | – | Nc1nc(Cl)nc2c1ncn2[C@@H]1O[C@H](CO)[C@@H](O)[C@@H]1F [Clofarabine] | 3.3 ± 0.4 [214 ± 13.9] % | 0.7 ± 0.2 [112 ± 34.6] % | –
– | – | 178 ± 9.77 | Cc1oc2c(NC(=O)c3c(Cl)cccc3Cl)cccc2c1C(C)(C)O [FR167356] | – | – | EC50 (hPXR [2]): 7.1 ± 1.2 µM; EC50 (hPXR [2]; read-out: PXR Primary EC50, qHTS primary screen, hPXR-Luc HepG2, 24 h): 3 ± 2.2 µM
– | – | – | CC[C@H]1CN2CCc3cc(OC)c(OC)cc3[C@@H]2C[C@@H]1C[C@H]1NCCc2cc(OC)c(OC)cc21 [Emetine] | 0.1 ± 0.01 [119 ± 8.89] % | 0.05 ± 0.04 [211 ± 74.0] % | –
– | – | – | N=C(Nc1ccccc1)Nc1ccccc1 [1,3-Diphenylguanidine] | 2.7 ± 0.3 [393 ± 128] % | 8.0 ± 13.7 [461 ± 143] % | EC50 (hPXR [3]; PXR Primary EC50): 8 µM; EC50 (hPXR [3]; […]): 2.7 µM
– | – | – | O=C(CCCN1CCC2(CC1)C(=O)NCN2c1ccccc1)c1ccc(F)cc1 [Spiperone] | 6.2 ± 3.3 [345 ± 225] % | 3.7 ± 0.4 [341 ± 31.7] % | CYP3A4 mRNA induction (fold increase) (CYP3A4 mRNA expression [4]): > 5 fold; CYP3A4 mRNA induction (result in words) (CYP3A4 mRNA expression [4]): not statistically significant
0.1 ± 0.02 | 0.04 ± 0.024 | 110 ± 10.3 | CC(C)C[C@H](NC(=O)[C@H](CCc1ccccc1)NC(=O)CN1CCOCC1)C(=O)N[C@@H](Cc1ccccc1)C(=O)N[C@@H](CC(C)C)C(=O)[C@@]1(C)CO1 [Carfilzomib] | – | – | –

SMILES | EC50 (hPXR [3]) [µM] | EC50 (hPXR [3]; [6]) [µM] | PXR Primary Efficacy (hPXR [2]; [7]) [%] | PXR Follow-up Efficacy (hPXR [2]) | PXR Primary Efficacy (hPXR [2]) | other results
CCCCOCN(C(=O)CCl)c1c(CC)cccc1CC [Butachlor] | 6.49 ± 2.9 | 4 ± 4 | – | 107 ± 26.0% | 119 ± 49.2% | CYP3A4 mRNA induction (fold increase) (CYP3A4 mRNA expression [1]; human): > 5 fold
